Structures are written as SMILES.

The target in one test is Histamine H1 receptor (Homo sapiens, UniProt P35367). Nature of the test: biochemical. In kind it is cell-based, HEK293.
Another test concerns the target Histamine H3 receptor (Homo sapiens, UniProt Q9Y5N1). Nature of the test: Displacement of [3H]N-alpha-methylhistamine from human histamine H3 receptor expressed in HEK293 cells after 1 to 1.5 hrs by scintillation counting. In kind it is cell-based. Background: In a radioligand displacement assay an active substance lowers the binding of a labelled ligand.
The next test addresses Histamine H4 receptor (Homo sapiens, UniProt Q9H3N8). Nature of the test: Displacement of [3H]histamine from human histamine H4 receptor expressed in HEK293 cells after 1 to 1.5 hrs by scintillation counting. In kind it is cell-based.

Histamine H1 receptor, sequence (P35367 whole entry): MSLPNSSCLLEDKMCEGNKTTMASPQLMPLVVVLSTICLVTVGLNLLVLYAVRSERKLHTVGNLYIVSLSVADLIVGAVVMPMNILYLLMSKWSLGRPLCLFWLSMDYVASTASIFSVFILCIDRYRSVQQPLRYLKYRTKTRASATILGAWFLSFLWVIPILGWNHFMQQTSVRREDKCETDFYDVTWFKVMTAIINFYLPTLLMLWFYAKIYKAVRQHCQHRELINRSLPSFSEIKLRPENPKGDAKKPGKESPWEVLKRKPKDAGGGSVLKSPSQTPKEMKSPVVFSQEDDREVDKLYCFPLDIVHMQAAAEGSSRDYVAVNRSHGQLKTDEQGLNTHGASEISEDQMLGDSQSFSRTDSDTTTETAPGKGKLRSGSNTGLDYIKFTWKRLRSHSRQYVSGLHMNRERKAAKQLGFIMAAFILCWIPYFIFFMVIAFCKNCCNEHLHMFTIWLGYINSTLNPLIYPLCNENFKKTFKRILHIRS
Histamine H3 receptor, sequence (Q9Y5N1 whole entry): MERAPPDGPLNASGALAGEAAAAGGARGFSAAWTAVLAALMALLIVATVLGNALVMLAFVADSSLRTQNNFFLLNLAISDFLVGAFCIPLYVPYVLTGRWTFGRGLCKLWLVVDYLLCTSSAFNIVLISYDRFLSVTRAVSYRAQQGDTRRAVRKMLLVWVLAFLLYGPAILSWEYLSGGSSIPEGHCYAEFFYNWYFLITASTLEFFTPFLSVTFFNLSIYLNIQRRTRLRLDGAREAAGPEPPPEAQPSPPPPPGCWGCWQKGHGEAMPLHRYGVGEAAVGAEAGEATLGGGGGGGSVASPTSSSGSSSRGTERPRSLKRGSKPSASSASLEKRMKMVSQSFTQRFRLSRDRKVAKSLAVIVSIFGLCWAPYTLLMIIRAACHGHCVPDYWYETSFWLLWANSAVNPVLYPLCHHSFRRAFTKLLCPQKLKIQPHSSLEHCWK
Histamine H4 receptor, sequence (Q9H3N8 whole entry): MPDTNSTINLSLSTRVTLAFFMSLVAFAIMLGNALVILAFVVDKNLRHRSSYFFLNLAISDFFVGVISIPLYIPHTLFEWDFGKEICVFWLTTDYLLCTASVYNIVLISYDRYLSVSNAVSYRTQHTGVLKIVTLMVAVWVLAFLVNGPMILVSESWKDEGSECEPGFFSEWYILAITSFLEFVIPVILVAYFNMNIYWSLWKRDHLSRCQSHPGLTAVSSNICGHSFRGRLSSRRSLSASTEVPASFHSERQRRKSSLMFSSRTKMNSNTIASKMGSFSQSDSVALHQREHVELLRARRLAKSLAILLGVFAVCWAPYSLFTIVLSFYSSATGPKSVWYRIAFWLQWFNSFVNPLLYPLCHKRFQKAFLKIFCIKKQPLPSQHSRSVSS

In the case of `c1ccc2c(N3CCN(C4CCCC4)CC3)ncnc2c1`, the Ki at Histamine H1 receptor (read-out: pKi (converted)) was 3240 nM; on Histamine H3 receptor, 100 nM. In the case of `OC(CNC1CC1)Cn1c2ccccc2c2ccccc21` (stereo not given), the values for the Ki on Histamine H1 receptor (read-out: pKi (converted)) and at Histamine H4 receptor were 6310 nM and 2400 nM, respectively. In the case of `CNCC(O)CN1c2ccccc2C2CCCCC21` (stereo not given), the Ki at Histamine H1 receptor (read-out: pKi (converted)) is 2290 nM.

Turning to `C=CCn1c(=N)n(CC(=O)c2ccccc2)c2ccccc21`, the Ki at Histamine H1 receptor (read-out: pKi (converted)) is 10700 nM. Still for that read-out and setting: in the case of `NCCc1ccccc1Oc1ccccc1` it was 11000 nM.

Regarding `NC1=NC(c2ccccc2)n2c(nc3ccccc32)N1` (stereo not given), the Ki at Histamine H1 receptor (read-out: pKi (converted)) is 427 nM. Turning to `c1ccc2c(c1)nc1n(CCN3CCCCC3)cnn21`, the Ki at Histamine H1 receptor (read-out: pKi (converted)) was 2630 nM; on Histamine H3 receptor, 600 nM. Turning to `CNCCCOc1cccc2ccccc12`, on Histamine H1 receptor (read-out: pKi (converted)), the Ki was 794 nM. Consider `c1ccc(Cc2ccccc2OC2CCNCC2)cc1`, for which the Ki on Histamine H1 receptor (read-out: Ki) is 6 nM. With `CN1CCN(c2nc(N3CCCC3)c3cnn(C)c3n2)CC1`, the figures for the Ki at Histamine H1 receptor (read-out: Ki) and at Histamine H4 receptor were 62 nM and 2900 nM, respectively.

As to `c1cnc2c(c1)cc([C@@H]1CCCO1)n2CCN1CCCCC1`, the Ki at Histamine H1 receptor (read-out: pKi (converted)) was 1780 nM. Same read-out and setting: in the case of `CN(C)CCSc1nc2ccccc2c2nnnn12` it was 708 nM.

For `C1CCN(c2nc(N3CCCC3)nc(N3CCNCC3)n2)C1`, the Ki on Histamine H1 receptor (read-out: pKi (converted)) was 1910 nM. For the compound `CC(C)NCc1ccc(-c2ccccc2)o1`, the Ki on Histamine H1 receptor (read-out: pKi (converted)) was 4570 nM. For the compound `OCCN1CCN(c2ncnc3sccc23)CC1`, the Ki at Histamine H1 receptor (read-out: pKi (converted)) was 708 nM. Same read-out and setting: as for `c1ccc2c(c1)n(CCN1CCCCC1)c1ncnn21`, the figure is 4170 nM.

The values are drawn from ChEMBL document CHEMBL1921782, “Crystal structure-based virtual screening for fragment-like ligands of the human histamine H(1) receptor” (J Med Chem, 2011).
